Patent publication US20200268786A1, “RNA CONTAINING COMPOSITIONS AND METHODS OF THEIR USE” (Icahn School of Medicine at Mount Sinai, priority 2015, published 2020)

System: human monocyte derived DCs (moDCs)
Assay: cytokine production of human moDCs stimulated with ncRNA (DOTAP liposomal transfection or none)
Type: cell-based
Conditions: DOTAP liposomal transfection, 2 ug/ml ncRNA
Experimental: PCR products were purified by PCR-Cleanup (Qiagen) and controlled by electrophoresis (0.8% Agarose gel). RNAs were generated by in vitro transcription using the mMESSAGE mMACHINE T7 ultra kit (Ambion) followed by a capping and short polyA reaction. RNAs were then purified using RNA-cleanup (Qiagen), quantified using a nanodrop, and checked by electrophoresis after denaturation at 65° C. for 10 minutes (1 5% Agarose gel).
MoDCs and imBM were both stimulated by i-ncRNA in the same way. The culturing of these cells is described below. Briefly, cells were plated in 96 flat well plates at 200,000 cells per well for primary cells (MoDCs) and 100,000 cells per well for lines (IMBM). i-ncRNA were transfected via liposomes formed using DOTAP (Roche Life Science) at a ratio of 1 μg DNA per 6 μl DOTAP diluted in HBS following the user-guide recommendations. The cells were stimulated using 2 μg/ml of purified i-ncRNA versus 10 μg/ml total RNA. To stimulate the TLR4 pathway, 100 ng/ml Ultrapure LPS (Invivogen) was used for TLR2: 500 ng/ml Pam2CSK4 (Invivogen) for TLR3: 2 μg/ml HMW PolyIC (Invivogen) TLR7/8: 1 μg/ml CLO97 (Invivogen) and 100 ng/ml R848 (Invivogen) TLR9: CpG B-ODN 1826 3 μM or STING CDN 5 μg/ml (Aduro).
Human moDCs: Human monocyte derived DCs were differentiated as previously described (Frleta et al., “HIV-1 Infection-Induced Apoptotic Microparticles Inhibit Human DCs via CD44,” J. Clinical Invest. 122:4685 (2012), which is hereby incorporated by reference in its entirety). Briefly, PBMCs were prepared by centrifugation over Ficoll-Hypaque gradients (BioWhittaker) from healthy donor buffy coats (New York Blood Center). Monocytes were isolated from PBMCs by adherence and then treated with 100 U/ml GM-CSF (Leukine Sanofi Oncology) and 300 U/ml IL-4 (RandD) in RPMI plus 5% human AB serum (Gemini Bio Products). Differentiation media was renewed on day 2 and day 4 of culture. Mature moDCs were harvested for use on days 5 to 7. For all experiments, harvested DCs were washed and equilibrated in serum-free X-Vivo 15 media (Lonza).

Compound	IL-6 production	IL-12 production	TNFalpha production
CCOCc1nc2c(N)nc3ccccc3c2n1CC(C)(C)O [R848]	induced a cellular inflammatory response	induced a cellular inflammatory response	induced a cellular inflammatory response
Poly-IC	induced a cellular inflammatory response	induced a cellular inflammatory response	induced a cellular inflammatory response
